The values that follow come from PMC10716780, “The multistep oxidation of cholesterol to pregnenolone by human cytochrome P450 11A1 is highly processive” (The Journal of Biological Chemistry, 2023).

Where two headings read alike, the source gives them in different places.

This test concerns the target T1, human P450 11A1 (Homo sapiens, UniProt P05108).
T1 sequence (P05108 41-521 limits assumed): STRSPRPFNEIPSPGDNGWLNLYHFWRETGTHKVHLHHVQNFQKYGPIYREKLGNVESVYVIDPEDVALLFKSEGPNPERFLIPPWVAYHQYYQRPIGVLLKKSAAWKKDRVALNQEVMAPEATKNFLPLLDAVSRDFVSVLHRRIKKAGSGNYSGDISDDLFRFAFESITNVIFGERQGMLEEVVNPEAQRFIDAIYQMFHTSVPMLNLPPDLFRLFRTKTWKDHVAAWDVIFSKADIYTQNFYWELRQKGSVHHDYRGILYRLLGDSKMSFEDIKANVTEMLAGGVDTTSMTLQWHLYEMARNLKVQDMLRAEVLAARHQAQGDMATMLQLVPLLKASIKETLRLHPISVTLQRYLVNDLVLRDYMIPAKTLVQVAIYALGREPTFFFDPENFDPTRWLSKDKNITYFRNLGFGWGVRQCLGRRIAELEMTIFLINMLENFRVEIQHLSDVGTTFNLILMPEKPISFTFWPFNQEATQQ
T1 sequence (P00257 59-186 partner): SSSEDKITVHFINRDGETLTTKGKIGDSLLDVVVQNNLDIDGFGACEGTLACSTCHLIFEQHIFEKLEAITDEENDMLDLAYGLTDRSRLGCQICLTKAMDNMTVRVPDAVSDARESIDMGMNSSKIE
Description: Kinetic modeling of single-turnover reactions (KinTek Explorer). Type of test: biochemical. Also on record: M A S T R S P R P F N E I P S P G D N; Met-Ala (N-terminal start residues in place of the transit peptide and Ile40) (N); made in house; host or cells: E. coli (P450 11A1 in C41(DE3); Adx and AdR in E. coli). As to conditions: for k^+ of oxidation step of enzyme-bound sterol, high Adx: high Adx (50 μM); for k^+ of oxidation step of enzyme-bound sterol, high Adx / k^+ of oxidation step of enzyme-bound sterol, low Adx: adjusted to fit single-turnover data; for k^+ of oxidation step of enzyme-bound sterol, low Adx: low Adx (5 μM). The text has this:
A minimal kinetic model was assembled to fit the data of the single-turnover reactions (Fig. 9) using the parameters listed in Table 2 (Fig. 14). […] Each oxidation reaction is irreversible, and thus the rates of the reverse reactions (k-2, k-4, k-6) were set to zero. The single-turnover data (Fig. 9) were fit to a single exponential to calculate the first-order decay of cholesterol, that is, the rate of cholesterol 22R-hydroxylation (k2). […] The rate of 20R-hydroxylation of 22R-OH cholesterol (k4) was estimated similarly to k2 from exponential fitting of first-order formation of the 20R,22R-(OH)2 sterol from the 22R-OH sterol.
Data were imported into KinTek Explorer software (v. 11.01, KinTek, https://kintekcorp.com/software) ([63]) as txt files and processed using an Apple computer (operating system 11.6.2). The indicated kinetic model (Table 2) was used with the enzyme and substrate concentrations, first estimating the rate of disappearance of the substrate cholesterol.

Setting [1] is: read-out: k^+ for ligand binding to P450 11A1 (kon) used in model, set to the value determined for P450 11A1 and ketoconazole.
The mark [2] stands for this setting: read-out: k^− for ligand dissociation (koff) used in model, values measured by stopped-flow spectroscopy.

Take `CC(C)CC[C@@H](O)[C@](C)(O)[C@H]1CC[C@H]2[C@@H]3CC=C4C[C@@H](O)CC[C@]4(C)[C@H]3CC[C@]12C` [20R,22R-(OH)2 Chol, (20R,22R)-Cholest-5-ene-3β,20,22-triol]: the “k^+ of oxidation step of enzyme-bound sterol, high Adx” value was 1.7 s⁻¹ and the “k^+ of oxidation step of enzyme-bound sterol, low Adx” value is 0.55 s⁻¹. Further, the kon (usually a measure of how fast the partners come together) under setting [1] came to 500000 M⁻¹ s⁻¹. Moreover, the koff (commonly a measure of how fast the partners let go of each other) (read-out: k^− for ligand dissociation (koff) used in model) came out at 0.39 s⁻¹. The “k^+ for ligand binding to P450 11A1 (kon) used in model” value (“k^+ for ligand binding to P450 11A1” for short) (set to the value determined for P450 11A1 and ketoconazole, listed as Q) turned out to be 530000 M⁻¹ s⁻¹.

In the case of `CC(C)CC[C@@H](O)[C@@H](C)[C@H]1CC[C@H]2[C@@H]3CC=C4C[C@@H](O)CC[C@]4(C)[C@H]3CC[C@]12C` [22R-OH Chol, 22R-hydroxycholesterol], the “k^+ of oxidation step of enzyme-bound sterol, high Adx” value is 1.5 s⁻¹ and the “k^+ of oxidation step of enzyme-bound sterol, low Adx” value was 0.4 s⁻¹. Under setting [1], the association rate constant (kon) came out at 500000 M⁻¹ s⁻¹. The koff under setting [2] was 0.04 s⁻¹. For the same molecule, the “k^+ for ligand binding to P450 11A1” value (set to the value determined for P450 11A1 and ketoconazole, listed as P) was 530000 M⁻¹ s⁻¹. Besides, the “k^− for ligand dissociation (koff) used in model” value (values measured by stopped-flow spectroscopy, listed as P) turned out to be 0.044 s⁻¹.

For `CC(C)CCC[C@@H](C)[C@H]1CC[C@H]2[C@@H]3CC=C4C[C@@H](O)CC[C@]4(C)[C@H]3CC[C@]12C` [Cholesterol], the “k^+ of oxidation step of enzyme-bound sterol, high Adx” value came to 0.12 s⁻¹ and the “k^+ of oxidation step of enzyme-bound sterol, low Adx” value was 0.04 s⁻¹. Also, the association rate constant (kon) under setting [1] was 500000 M⁻¹ s⁻¹. For the same molecule, the koff under setting [2] is 0.24 s⁻¹. In addition, under “set to the value determined for P450 11A1 and ketoconazole, listed as S”, the “k^+ for ligand binding to P450 11A1” value stood at 530000 M⁻¹ s⁻¹.

For the molecule `CC(=O)[C@H]1CC[C@H]2[C@@H]3CC=C4C[C@@H](O)CC[C@]4(C)[C@H]3CC[C@]12C` [Pregnenolone], the “k^+ for ligand binding to P450 11A1” value (set to the value determined for P450 11A1 and ketoconazole, listed as R) was found to be 530000 M⁻¹ s⁻¹. Besides, the kon (set to the value determined for P450 11A1 and ketoconazole, read-out: k^+ for ligand binding to P450 11A1 (kon) used in model) turned out to be 500000 M⁻¹ s⁻¹. Moreover, the dissociation rate constant (koff) (values measured by stopped-flow spectroscopy, read-out: k^− for ligand dissociation (koff) used in model) came out at 0.55 s⁻¹.
